ChEMBL document CHEMBL1201862, “PubChem BioAssay data set” (2004)
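The compound was tested at five concentrations on cells cultured in 96-well plates, with a 48-hour exposure period. GI50 marks 50% less growth.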 Calls of active or inactive are those of the source. No stated cut-off is given here; in the data, active = GI50 up to about 1.1 µM and inactive = higher.

Tests used:
Test in all cases: DTP human tumour cell line panel, 48 h
U-251 = test system: U-251
NCI/ADR-RES = test system: NCI/ADR-RES
SNB-19 = test system: SNB-19
Malme-3M = test system: Malme-3M
A498 = test system: A498
SK-MEL-2 = test system: SK-MEL-2
BT-549 = test system: BT-549
SF-539 = test system: SF-539
HCT-116 = test system: HCT-116
SK-OV-3 = test system: SK-OV-3
SK-MEL-5 = test system: SK-MEL-5
UO-31 = test system: UO-31
KM12 = test system: KM12
M14 = test system: M14
HCT-15 = test system: HCT-15
HOP-62 = test system: HOP-62
HCC 2998 = test system: HCC 2998
UACC-257 = test system: UACC-257
IGROV-1 = test system: IGROV-1
SK-MEL-28 = test system: SK-MEL-28
COLO 205 = test system: COLO 205
SF-295 = test system: SF-295
LOX IMVI = test system: LOX IMVI
MCF7 = test system: MCF7
786-0 = test system: 786-0
RXF 393 = test system: RXF 393
RPMI-8226 = test system: RPMI-8226
A549 = test system: A549
PC-3 = test system: PC-3
OVCAR-4 = test system: OVCAR-4
SF-268 = test system: SF-268
OVCAR-5 = test system: OVCAR-5
OVCAR-8 = test system: OVCAR-8
CAKI-1 = test system: CAKI-1
EKVX = test system: EKVX
MDA-MB-231 = test system: MDA-MB-231
DU-145 = test system: DU-145
CCRF-CEM = test system: CCRF-CEM
HOP-92 = test system: HOP-92
MOLT-4 = test system: MOLT-4
HT-29 = test system: HT-29
SNB-75 = test system: SNB-75
TK-10 = test system: TK-10
MDA-MB-435 = test system: MDA-MB-435
NCI-H522 = test system: NCI-H522
OVCAR-3 = test system: OVCAR-3
Hs-578T = test system: Hs-578T
NCI-H23 = test system: NCI-H23
SW-620 = test system: SW-620
UACC-62 = test system: UACC-62
T47D = test system: T47D
MDA-N = test system: MDA-N
ACHN = test system: ACHN
NCI-H226 = test system: NCI-H226
NCI-H460 = test system: NCI-H460
K562 = test system: K562
SN12C = test system: SN12C
HL-60 = test system: HL-60
SR = test system: SR

In the case of `N#Cc1sc2nc3ccccc3n2c1N`, the GI50 (U-251) is reported as 83.9 µM (inactive), the GI50 (NCI/ADR-RES) is reported as > 100 µM (inactive) and the GI50 (SNB-19) is reported as > 100 µM (inactive). The GI50 (Malme-3M) was > 100 µM (inactive), the GI50 (A498) was 39.4 µM (inactive) and the GI50 (SK-MEL-2) was 26.1 µM (inactive). The GI50 (BT-549) was 49.2 µM (inactive), the GI50 (SF-539) was 55.3 µM (inactive) and the GI50 (HCT-116) was > 100 µM (inactive). The GI50 (SK-OV-3) was 40.1 µM (inactive), the GI50 (SK-MEL-5) was 95.7 µM (inactive) and the GI50 (UO-31) was 36.6 µM (inactive). The GI50 (KM12) was 0.344 µM (active), the GI50 (M14) was > 100 µM (inactive) and the GI50 (HCT-15) was 65.5 µM. For the same compound, the GI50 (HOP-62) was 84.5 µM (inactive), the GI50 (HCC 2998) was 36.2 µM (inactive) and the GI50 (UACC-257) was > 100 µM (inactive). The GI50 (IGROV-1) was 58.7 µM (inactive), the GI50 (SK-MEL-28) was > 100 µM (inactive) and the GI50 (COLO 205) was 78.7 µM (inactive). The GI50 (SF-295) was > 100 µM (inactive), the GI50 (LOX IMVI) was 40.8 µM (inactive) and the GI50 (MCF7) was 84.5 µM (inactive). The GI50 (786-0) was > 100 µM (inactive), the GI50 (RXF 393) was 17.6 µM (inactive) and the GI50 (RPMI-8226) was 84.3 µM (inactive). For the same compound, the GI50 (A549) was 47.4 µM (inactive), the GI50 (PC-3) was 73.6 µM (inactive) and the GI50 (OVCAR-4) was > 100 µM (inactive). For the same compound, the GI50 (SF-268) was 60.3 µM (inactive), the GI50 (OVCAR-5) was > 100 µM (inactive) and the GI50 (OVCAR-8) was 78.2 µM (inactive). The GI50 (CAKI-1) was 37.2 µM (inactive), the GI50 (EKVX) was 85.1 µM (inactive) and the GI50 (MDA-MB-231) was 76.4 µM (inactive). The GI50 (DU-145) was 94.8 µM (inactive), the GI50 (CCRF-CEM) was 29.3 µM (inactive) and the GI50 (HOP-92) was > 100 µM (inactive). For the same compound, the GI50 (MOLT-4) was 31.4 µM (inactive), the GI50 (HT-29) was 75 µM (inactive) and the GI50 (SNB-75) was 29.7 µM (inactive). For the same compound, the GI50 (TK-10) was 14.9 µM (inactive), the GI50 (MDA-MB-435) was > 100 µM (inactive) and the GI50 (NCI-H522) was > 100 µM (inactive). For the same compound, the GI50 (OVCAR-3) was 68.7 µM (inactive), the GI50 (Hs-578T) was 36.2 µM (inactive) and the GI50 (NCI-H23) was 52.5 µM (inactive). The GI50 (SW-620) was 92.5 µM (inactive), the GI50 (UACC-62) was 62.4 µM (inactive) and the GI50 (T47D) was 89.7 µM (inactive). For the same compound, the GI50 (MDA-N) was > 100 µM (inactive), the GI50 (ACHN) was 92.3 µM (inactive) and the GI50 (NCI-H226) was 95.9 µM (inactive).
In the case of `C1=C2C3=[N+](CCCC3)CC2Cc2sccc21` (configuration not stated), the GI50 (U-251) is reported as 29.4 µM (inactive), the GI50 (NCI/ADR-RES) is reported as > 100 µM (inactive) and the GI50 (SNB-19) is reported as 86.9 µM (inactive). For the same compound, the GI50 (Malme-3M) was 49.1 µM (inactive), the GI50 (A498) was 47.6 µM (inactive) and the GI50 (SK-MEL-2) was > 100 µM (inactive). The GI50 (BT-549) was 82.6 µM (inactive), the GI50 (HCT-116) was > 100 µM (inactive) and the GI50 (SK-OV-3) was > 100 µM (inactive). The GI50 (SK-MEL-5) was 57.7 µM (inactive), the GI50 (UO-31) was > 100 µM (inactive) and the GI50 (KM12) was 45.6 µM (inactive). The GI50 (M14) was > 100 µM (inactive), the GI50 (HCT-15) was over 100 µM and the GI50 (HOP-62) was 81.7 µM (inactive). The GI50 (UACC-257) was 33.3 µM (inactive), the GI50 (IGROV-1) was > 100 µM (inactive) and the GI50 (SK-MEL-28) was > 100 µM (inactive). For the same compound, the GI50 (NCI-H460) was 52.7 µM (inactive), the GI50 (COLO 205) was 67.1 µM (inactive) and the GI50 (SF-295) was 66.5 µM (inactive). The GI50 (LOX IMVI) was > 100 µM (inactive), the GI50 (MCF7) was > 100 µM (inactive) and the GI50 (786-0) was > 100 µM (inactive). For the same compound, the GI50 (RXF 393) was > 100 µM (inactive), the GI50 (A549) was 30 µM (inactive) and the GI50 (PC-3) was 45.6 µM (inactive). For the same compound, the GI50 (OVCAR-4) was 42.5 µM (inactive), the GI50 (SF-268) was > 100 µM (inactive) and the GI50 (OVCAR-5) was > 100 µM (inactive). The GI50 (OVCAR-8) was > 100 µM (inactive), the GI50 (CAKI-1) was > 100 µM (inactive) and the GI50 (EKVX) was 42.7 µM (inactive). The GI50 (MDA-MB-231) was > 100 µM (inactive), the GI50 (DU-145) was > 100 µM (inactive) and the GI50 (CCRF-CEM) was > 100 µM (inactive). The GI50 (HOP-92) was 99.8 µM (inactive), the GI50 (MOLT-4) was > 100 µM (inactive) and the GI50 (HT-29) was 53.2 µM (inactive). The GI50 (SNB-75) was > 100 µM (inactive), the GI50 (TK-10) was > 100 µM (inactive) and the GI50 (MDA-MB-435) was > 100 µM (inactive). The GI50 (K562) was > 100 µM (inactive), the GI50 (NCI-H522) was 53 µM (inactive) and the GI50 (OVCAR-3) was 64.4 µM (inactive). For the same compound, the GI50 (SN12C) was 92.7 µM (inactive), the GI50 (Hs-578T) was > 100 µM (inactive) and the GI50 (NCI-H23) was > 100 µM (inactive). The GI50 (SW-620) was > 100 µM (inactive), the GI50 (UACC-62) was > 100 µM (inactive) and the GI50 (T47D) was 74.8 µM (inactive). The GI50 (HL-60) was > 100 µM (inactive), the GI50 (MDA-N) was > 100 µM (inactive) and the GI50 (ACHN) was > 100 µM (inactive). For the same compound, the GI50 (NCI-H226) was > 100 µM (inactive).
In the case of `S=C1CSc2c(cnc3ccccc23)N1`, the GI50 (U-251) is reported as > 100 µM (inactive), the GI50 (NCI/ADR-RES) is reported as > 100 µM (inactive) and the GI50 (SNB-19) is reported as > 100 µM (inactive). For the same compound, the GI50 (Malme-3M) was > 100 µM (inactive), the GI50 (BT-549) was 71.4 µM (inactive) and the GI50 (HCT-116) was > 100 µM (inactive). The GI50 (SK-OV-3) was > 100 µM (inactive), the GI50 (SK-MEL-5) was > 100 µM (inactive) and the GI50 (UO-31) was 65.6 µM (inactive). The GI50 (KM12) was > 100 µM (inactive), the GI50 (M14) was > 100 µM (inactive) and the GI50 (HCT-15) was over 100 µM. For the same compound, the GI50 (HOP-62) was > 100 µM (inactive), the GI50 (UACC-257) was > 100 µM (inactive) and the GI50 (IGROV-1) was > 100 µM (inactive). For the same compound, the GI50 (SK-MEL-28) was > 100 µM (inactive), the GI50 (NCI-H460) was 56.6 µM (inactive) and the GI50 (COLO 205) was > 100 µM (inactive). The GI50 (SF-295) was 52.2 µM (inactive), the GI50 (LOX IMVI) was > 100 µM (inactive) and the GI50 (MCF7) was > 100 µM (inactive). For the same compound, the GI50 (786-0) was > 100 µM (inactive), the GI50 (RXF 393) was 20 µM (inactive) and the GI50 (RPMI-8226) was > 100 µM (inactive). The GI50 (A549) was > 100 µM (inactive), the GI50 (PC-3) was 68.4 µM (inactive) and the GI50 (OVCAR-4) was > 100 µM (inactive). The GI50 (SF-268) was > 100 µM (inactive), the GI50 (OVCAR-5) was > 100 µM (inactive) and the GI50 (OVCAR-8) was 65.9 µM (inactive). For the same compound, the GI50 (CAKI-1) was 78.7 µM (inactive), the GI50 (EKVX) was 76.4 µM (inactive) and the GI50 (MDA-MB-231) was > 100 µM (inactive). For the same compound, the GI50 (DU-145) was > 100 µM (inactive), the GI50 (CCRF-CEM) was > 100 µM (inactive) and the GI50 (MOLT-4) was > 100 µM (inactive). The GI50 (HT-29) was > 100 µM (inactive), the GI50 (SNB-75) was 56.8 µM (inactive) and the GI50 (TK-10) was 35.1 µM (inactive). The GI50 (MDA-MB-435) was > 100 µM (inactive), the GI50 (K562) was > 100 µM (inactive) and the GI50 (NCI-H522) was > 100 µM (inactive). For the same compound, the GI50 (OVCAR-3) was > 100 µM (inactive), the GI50 (SN12C) was > 100 µM (inactive) and the GI50 (Hs-578T) was 20 µM (inactive). For the same compound, the GI50 (NCI-H23) was > 100 µM (inactive), the GI50 (UACC-62) was > 100 µM (inactive) and the GI50 (T47D) was 80.5 µM (inactive). For the same compound, the GI50 (HL-60) was > 100 µM (inactive), the GI50 (MDA-N) was > 100 µM (inactive) and the GI50 (ACHN) was > 100 µM (inactive). The GI50 (NCI-H226) was 53.7 µM (inactive) and the GI50 (SR) was > 100 µM (inactive).
